Experimental data from patent publication US20130090305A1, “METHOD USING A DIETARY SUPPLEMENT FOR HEALING OR REGRESSING SYMPTOMS OF GASTROESOPHAGEAL REFLUX DISEASE, GASTRITIS AND ULCERS” (priority 2006, published 2013).

What was measured:
[1] = tested on: nitric oxide biosynthesis; details: cited from earlier work
gastric acid secretion = details: cited from earlier work
[2] = tested on: spontaneous gastric ulcers; details: 4-week administration in the diet, young pigs; cited from earlier work
[3] = tested on: chronic GERD, ulcer of 6 cm in the esophagus; experiment: Case of a patient with chronic GERD and a 6 cm esophageal ulcer; assay type: in vivo, human; details: before the formulation; regurgitation and heartburn

SMILES	effect on nitric oxide biosynthesis [1]	action on gastric acid secretion (gastric acid secretion)	incidence of spontaneous gastric ulcers [2]	relief of symptoms with earlier treatments [3]
COc1ccc2[nH]cc(CCNC(C)=O)c2c1 [melatonin, N-Acetyl-5-methoxytryptamine]	inhibits	inhibitory action	significantly reduced	–
O=C([O-])O.[Na+] [baking soda]	–	–	–	Neither treatment produced even partial relief
